Target: T1, human PAH with the R408W mutation (A375 R408W cells) (Homo sapiens, UniProt P00439, R408W)
T1 construct: expressed in transfected cells
T1 sequence (P00439 1-452 R408W): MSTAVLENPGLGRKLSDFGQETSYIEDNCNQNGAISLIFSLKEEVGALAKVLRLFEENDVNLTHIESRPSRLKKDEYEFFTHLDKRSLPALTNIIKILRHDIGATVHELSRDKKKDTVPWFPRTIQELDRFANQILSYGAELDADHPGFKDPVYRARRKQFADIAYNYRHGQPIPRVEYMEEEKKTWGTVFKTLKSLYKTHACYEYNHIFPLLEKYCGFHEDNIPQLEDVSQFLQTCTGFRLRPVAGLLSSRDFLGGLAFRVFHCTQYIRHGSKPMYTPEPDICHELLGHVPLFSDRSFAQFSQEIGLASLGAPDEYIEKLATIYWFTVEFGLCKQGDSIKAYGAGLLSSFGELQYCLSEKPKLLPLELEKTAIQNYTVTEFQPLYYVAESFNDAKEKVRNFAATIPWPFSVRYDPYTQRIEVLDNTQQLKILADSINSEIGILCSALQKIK
Assay: Cell Based Phenylalanine Flux Assay
Conditions: A375 R408W cells; 24 hrs with compound, then 20 μM sepiapterin and 800 μM 13C9,15N-Phenylalanine for 4 hours; 13C-Tyrosine by LC-MS; average where tested multiple times
How it was run: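 Phenylalanine-to-tyrosine flux is measured in A375 cells carrying stable human R408W PAH. After 24 h compound exposure, 13C9,15N-Phe (800 μM) with sepiapterin (20 μM) is supplied for 4 h and media 13C-Tyr is read by LC-MS; AC50s are binned.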

AC50	SMILES
1000 to 5000 nM	Cc1cccc2nc([C@H]3c4nc[nH]c4CCN3C(=O)c3nnc(-c4ncccc4F)o3)oc12 [Example 857, (R)-(5-(3-fluoropyridin-2-yl)-1,3,4-oxadiazol-2-yl)(4-(7-methylbenzo[d]oxazol-2-yl)-6,7-dihydro-1H-imidazo[4,5-c]pyridin-5(4H)-yl)methanone]
≤ 500 nM	CN1CCN(c2ccc3c(C(=O)N4CCc5[nH]cnc5[C@H]4c4nc5c(F)cccc5o4)cnn3c2)CC1 [Example 475, (S)-(4-(4-fluorobenzo[d]oxazol-2-yl)-6,7-dihydro-1H-imidazo[4,5-c]pyridin-5(4H)-yl)(6-(4-methylpiperazin-1-yl)pyrazolo[1,5-a]pyridin-3-yl)methanone]
≤ 500 nM	O=C(c1ocnc1C(F)F)N1CCc2[nH]cnc2[C@H]1c1nc2c(Br)cccc2o1 [Example 433, (S)-(4-(4-bromobenzo[d]oxazol-2-yl)-6,7-dihydro-1H-imidazo[4,5-c]pyridin-5(4H)-yl)(4-(difluoromethyl)oxazol-5-yl)methanone]
≤ 500 nM	O=C(c1ocnc1C(F)F)N1CCc2[nH]cnc2[C@@H]1c1nc2cccc(Br)c2o1 [Example 462, (R)-(4-(7-bromobenzo[d]oxazol-2-yl)-6,7-dihydro-1H-imidazo[4,5-c]pyridin-5(4H)-yl)(4-(difluoromethyl)oxazol-5-yl)methanone]
1000 to 5000 nM	CC(C)(O)c1nc(C(F)F)c(C(=O)N2CCc3[nH]cnc3[C@@H]2c2nc3c(F)c(F)ccc3o2)o1 [Example 348, (R)-(4-(4,5-difluorobenzo[d]oxazol-2-yl)-6,7-dihydro-1H-imidazo[4,5-c]pyridin-5(4H)-yl)(4-(difluoromethyl)-2-(2-hydroxypropan-2-yl)oxazol-5-yl)methanone]
≤ 500 nM	O=C(c1ccnn1C(F)F)N1CCc2[nH]cnc2[C@H]1c1nc2cccc(F)c2o1 [Example 195, (S)-(1-(difluoromethyl)-1H-pyrazol-5-yl)(4-(7-fluorobenzo[d]oxazol-2-yl)-6,7-dihydro-1H-imidazo[4,5-c]pyridin-5(4H)-yl)methanone]
500 to 1000 nM	O=C([C@@H]1CC1(F)F)N1CCc2[nH]cnc2[C@H]1c1nc2cc(F)ccc2o1 [Example 61, ((S)-2,2-difluorocyclopropyl)((S)-4-(5-fluorobenzo[d]oxazol-2-yl)-6,7-dihydro-1H-imidazo[4,5-c]pyridin-5(4H)-yl)methanone]
≤ 500 nM	O=C(c1ocnc1C(F)F)N1CCc2[nH]cnc2[C@H]1c1nc2c(F)cc(F)cc2o1 [Example 301, (S)-(4-(4,6-difluorobenzo[d]oxazol-2-yl)-6,7-dihydro-1H-imidazo[4,5-c]pyridin-5(4H)-yl)(4-(difluoromethyl)oxazol-5-yl)methanone]
≤ 500 nM	C[C@@H](O)c1nc(C(F)F)c(C(=O)N2CCc3[nH]cnc3[C@@H]2c2nc3cccc(F)c3o2)o1 [Example 246, (4-(difluoromethyl)-2-((R)-1-hydroxyethyl)oxazol-5-yl)((R)-4-(7-fluorobenzo[d]oxazol-2-yl)-6,7-dihydro-1H-imidazo[4,5-c]pyridin-5(4H)-yl)methanone]
500 to 1000 nM	COc1cccc2oc([C@@H]3c4nc[nH]c4CCN3C(=O)c3nc(C(F)F)nn3C)nc12 [Example 601, (S)-(3-(difluoromethyl)-1-methyl-1H-1,2,4-triazol-5-yl)(4-(4-methoxybenzo[d]oxazol-2-yl)-6,7-dihydro-1H-imidazo[4,5-c]pyridin-5(4H)-yl)methanone]
1000 to 5000 nM	Cc1cccc2oc([C@H]3c4nc[nH]c4CCN3C(=O)c3cnc(C(C)(C)O)o3)nc12 [Example 512, (R)-(2-(2-hydroxypropan-2-yl)oxazol-5-yl)(4-(4-methylbenzo[d]oxazol-2-yl)-6,7-dihydro-1H-imidazo[4,5-c]pyridin-5(4H)-yl)methanone]
1000 to 5000 nM	Cn1nc(C2CC2)nc1C(=O)N1CCc2[nH]cnc2[C@@H]1c1nc2cccc(F)c2o1 [Example 498, (R)-(3-cyclopropyl-1-methyl-1H-1,2,4-triazol-5-yl)(4-(7-fluorobenzo[d]oxazol-2-yl)-6,7-dihydro-1H-imidazo[4,5-c]pyridin-5(4H)-yl)methanone]
≤ 500 nM	Cn1nc(Cl)nc1C(=O)N1CCc2[nH]cnc2[C@H]1c1nc2cccc(F)c2o1 [Example 283, (S)-(3-chloro-1-methyl-1H-1,2,4-triazol-5-yl)(4-(7-fluorobenzo[d]oxazol-2-yl)-6,7-dihydro-1H-imidazo[4,5-c]pyridin-5(4H)-yl)methanone]

The next lines start with the molecule.

SMILES	AC50
Cc1cc(F)cc2nc([C@@H]3c4nc[nH]c4CCN3C(=O)c3ocnc3C(F)F)oc12 [Example 657, (S)-(4-(difluoromethyl)oxazol-5-yl)(4-(5-fluoro-7-methylbenzo[d]oxazol-2-yl)-6,7-dihydro-1H-imidazo[4,5-c]pyridin-5(4H)-yl)methanone]	≤ 500 nM
Cn1cncc1-c1nc(C(F)(F)F)c(C(=O)N2CCc3[nH]cnc3[C@@H]2c2nc3cc(F)ccc3o2)o1 [Example 792, (R)-(4-(5-fluorobenzo[d]oxazol-2-yl)-6,7-dihydro-1H-imidazo[4,5-c]pyridin-5(4H)-yl)(2-(1-methyl-1H-imidazol-5-yl)-4-(trifluoromethyl)oxazol-5-yl)methanone]	1000 to 5000 nM
O=C(c1ocnc1C(F)F)N1CCc2[nH]cnc2[C@H]1c1nc2cc(F)cc(F)c2o1 [Example 309, (S)-(4-(5,7-difluorobenzo[d]oxazol-2-yl)-6,7-dihydro-1H-imidazo[4,5-c]pyridin-5(4H)-yl)(4-(difluoromethyl)oxazol-5-yl)methanone]	≤ 500 nM
CN1CCN(c2nc(C(F)F)c(C(=O)N3CCc4[nH]cnc4[C@H]3c3nc4cc(F)ccc4o3)o2)CC1 [Example 403, (S)-(4-(difluoromethyl)-2-(4-methylpiperazin-1-yl)oxazol-5-yl)(4-(5-fluorobenzo[d]oxazol-2-yl)-6,7-dihydro-1H-imidazo[4,5-c]pyridin-5(4H)-yl)methanone]	500 to 1000 nM
Cc1nc(C(C)(C)C#N)oc1C(=O)N1CCc2[nH]cnc2[C@H]1c1nc2cc(F)ccc2o1 [Example 185, (S)-2-(5-(4-(5-fluorobenzo[d]oxazol-2-yl)-4,5,6,7-tetrahydro-1H-imidazo[4,5-c]pyridine-5-carbonyl)-4-methyloxazol-2-yl)-2-methylpropanenitrile]	500 to 1000 nM
O=C(c1nnc(-c2ccccn2)o1)N1CCc2[nH]cnc2[C@@H]1c1nc2cc(F)cc(F)c2o1 [Example 579, (R)-(4-(5,7-difluorobenzo[d]oxazol-2-yl)-6,7-dihydro-1H-imidazo[4,5-c]pyridin-5(4H)-yl)(5-(pyridin-2-yl)-1,3,4-oxadiazol-2-yl)methanone]	≤ 500 nM
CC(C)(O)c1nc(C(F)F)c(C(=O)N2CCc3[nH]cnc3[C@H]2c2nc3cccc(Br)c3o2)o1 [Example 460, (S)-(4-(7-bromobenzo[d]oxazol-2-yl)-6,7-dihydro-1H-imidazo[4,5-c]pyridin-5(4H)-yl)(4-(difluoromethyl)-2-(2-hydroxypropan-2-yl)oxazol-5-yl)methanone]	≤ 500 nM
O=C(c1nnc(-c2ccn(C(F)F)n2)o1)N1CCc2[nH]cnc2[C@@H]1c1nc2cccc(F)c2o1 [Example 861, (R)-(5-(1-(difluoromethyl)-1H-pyrazol-3-yl)-1,3,4-oxadiazol-2-yl)(4-(7-fluorobenzo[d]oxazol-2-yl)-6,7-dihydro-1H-imidazo[4,5-c]pyridin-5(4H)-yl)methanone]	500 to 1000 nM
O=C(c1cnn2cc(N3CCOCC3)ccc12)N1CCc2[nH]cnc2[C@H]1c1nc2cccc(F)c2o1 [Example 365, (S)-(4-(7-fluorobenzo[d]oxazol-2-yl)-6,7-dihydro-1H-imidazo[4,5-c]pyridin-5(4H)-yl)(6-morpholinopyrazolo[1,5-a]pyridin-3-yl)methanone]	500 to 1000 nM
C[C@@H](O)c1nc(C(F)F)c(C(=O)N2CCc3[nH]cnc3[C@@H]2c2nc3cc(F)ccc3o2)o1 [Example 152, (4-(difluoromethyl)-2-((R)-1-hydroxyethyl)oxazol-5-yl)((R)-4-(5-fluorobenzo[d]oxazol-2-yl)-6,7-dihydro-1H-imidazo[4,5-c]pyridin-5(4H)-yl)methanone]	1000 to 5000 nM
O=C(c1nnc(-c2ccn(C(F)F)n2)o1)N1CCc2[nH]cnc2[C@H]1c1nc2ccccc2o1 [Example 846, (S)-(4-(benzo[d]oxazol-2-yl)-6,7-dihydro-1H-imidazo[4,5-c]pyridin-5(4H)-yl)(5-(1-(difluoromethyl)-1H-pyrazol-3-yl)-1,3,4-oxadiazol-2-yl)methanone]	≤ 500 nM

Same assay, conditions: A375 cells expressing R408W PAH; 24 hrs with compound, then 20 μM sepiapterin and 800 μM 13C9,15N-Phenylalanine for 4 hours; 13C-Tyrosine by LC-MS; average where tested multiple times

AC50	SMILES
1000 to 5000 nM	Cc1cccc2nc(C3c4nc[nH]c4CCN3C(=O)c3cnc(C(C)(C)O)o3)oc12 (centres unmarked)
≥ 5000 nM	O=C(c1cnco1)N1CCc2[nH]cnc2C1c1nc2c(F)cccc2o1 (centres unmarked)

Second part, the molecule before the results:

SMILES	AC50
CN(C)Cc1ccc2c(C(=O)N3CCc4[nH]cnc4C3c3nc4cc(F)ccc4o3)cnn2c1 (centres unmarked)	≥ 5000 nM
Cc1nc(C(C)(C)O)oc1C(=O)N1CCc2[nH]cnc2C1c1nc2cc(F)ccc2o1 (centres unmarked)	1000 to 5000 nM
Cc1nc(C2(O)CCC2)oc1C(=O)N1CCc2[nH]cnc2C1c1nc2cc(F)ccc2o1 (centres unmarked)	≥ 5000 nM

Source: patent US20250171437A1 (Agios Pharmaceuticals,Inc., priority 2022, published 2025)
